In ChEMBL document CHEMBL1131763, “Thiazole-derived potent, highly bioavailable short duration growth hormone secretagogues” (Bioorg Med Chem Lett, 1999):
Activity calls are given as the source filed them. No cut-off for these calls is given here.

Assays:
Type in all cases: functional, organism-based
Rattus norvegicus = organism: Rattus norvegicus; assay: Concentration required for determining half-maximal release of growth hormone(GH) in the rat pituitary cell assay; conditions: Pituitary gland cell
Canis familiaris [1] = assay: In vivo growth hormone(GH) release in beagles after intravenous administration; NA- Not active; conditions: Canis lupus familiaris
Canis familiaris [2] = assay: In vivo growth hormone(GH) release in beagles after orally administered dose of 0.25 mg/kg; 6/8; parameters: dose 0.25 mg/kg; conditions: Canis lupus familiaris
Canis familiaris [3] = assay: In vivo growth hormone(GH) release in beagles after orally administered dose of 0.5 mg/kg;8/8; parameters: dose 0.5 mg/kg; conditions: Canis lupus familiaris
Canis familiaris [4] = assay: In vivo growth hormone(GH) release in beagles after intravenously administered dose of 0.01 mg/kg; 1/1; parameters: dose 0.01 mg/kg; conditions: Canis lupus familiaris

SMILES: CCOC(=O)[C@@]1(Cc2cscn2)CCCN(C(=O)[C@@H](Cc2c[nH]c3ccccc23)NC(=O)C(C)(C)N)C1
- EC50 (Rattus norvegicus): 15 nM

SMILES: CCOC(=O)[C@]1(Cc2cscn2)CCCN(C(=O)[C@@H](Cc2c[nH]c3ccccc23)NC(=O)C(C)(C)N)C1
- EC50 (Rattus norvegicus): 0.5 nM

SMILES: CCOC(=O)C1(Cc2cncs2)CCCN(C(=O)[C@@H](Cc2c[nH]c3ccccc23)NC(=O)C(C)(C)N)C1 (stereo partly drawn)
- Response (Canis familiaris [1]): inactive
- EC50 (Rattus norvegicus): 6.1 nM

SMILES: CCOC(=O)C1(Cc2ccncc2)CCCN(C(=O)[C@@H](Cc2c[nH]c3ccccc23)NC(=O)C(C)(C)N)C1 (stereo partly drawn)
- EC50 (Rattus norvegicus): 4.4 nM

SMILES: CC(C)(N)C(=O)N[C@H](Cc1c[nH]c2ccccc12)C(=O)N1CCC[C@](Cc2ccccc2)(C(=O)O)C1
- EC50 (Rattus norvegicus): 190 nM

SMILES: CCOC(=O)C1(Cc2cccnc2)CCCN(C(=O)[C@@H](Cc2c[nH]c3ccccc23)NC(=O)C(C)(C)N)C1 (stereo partly drawn)
- EC50 (Rattus norvegicus): 2.2 nM

SMILES: CCOC(=O)[C@@]1(Cc2ccccc2)CCCN(C(=O)[C@@H](Cc2c[nH]c3ccccc23)NC(=O)C(C)(C)N)C1
- Response (Canis familiaris [2]): Partially active
- Response (Canis familiaris [3]): Active
- EC50 (Rattus norvegicus): 1.6 nM
- Response (Canis familiaris [4]): inactive

SMILES: CCOC(=O)C1(Cc2nccs2)CCCN(C(=O)[C@@H](Cc2c[nH]c3ccccc23)NC(=O)C(C)(C)N)C1 (stereo partly drawn)
- EC50 (Rattus norvegicus): 4.2 nM

SMILES: CCOC(=O)C1(Cc2cscn2)CCCN(C(=O)[C@@H](Cc2c[nH]c3ccccc23)NC(=O)C(C)(C)N)C1 (stereo partly drawn)
- EC50 (Rattus norvegicus): 1 nM

SMILES: CCOC(=O)[C@@]1(Cc2ccccn2)CCCN(C(=O)[C@@H](Cc2c[nH]c3ccccc23)NC(=O)C(C)(C)N)C1
- EC50 (Rattus norvegicus): 3 nM

SMILES: CCOC(=O)C1(Cc2ccccn2)CCCN(C(=O)[C@@H](Cc2c[nH]c3ccccc23)NC(=O)C(C)(C)N)C1 (stereo partly drawn)
- EC50 (Rattus norvegicus): 0.5 nM

SMILES: CC(C)(N)C(=O)N[C@H](Cc1c[nH]c2ccccc12)C(=O)N1CCC[C@](Cc2cscn2)(C(=O)O)C1
- EC50 (Rattus norvegicus): > 500 nM

SMILES: CC(C)(N)C(=O)N[C@H](Cc1c[nH]c2ccccc12)C(=O)N1CCC[C@](Cc2ccccn2)(C(=O)O)C1
- EC50 (Rattus norvegicus): 570 nM

SMILES: CCOC(=O)[C@]1(Cc2ccccn2)CCCN(C(=O)[C@@H](Cc2c[nH]c3ccccc23)NC(=O)C(C)(C)N)C1
- EC50 (Rattus norvegicus): 0.2 nM
